Measurements from patent US10722464B2, “Compositions for delivery of drug combinations” (priority 2001, dated 2020).

Experiment: in vivo
Conditions: SCID/rag2, mouse, plasma, iv, 10 mg/kg

`CCC1=C[C@@H]2CN(C1)Cc1c([nH]c3ccccc13)[C@@](C(=O)OC)(c1cc3c(cc1OC)N(C)[C@H]1[C@@](O)(C(=O)OC)[C@H](OC(C)=O)[C@]4(CC)C=CCN5CC[C@]31[C@@H]54)C2` [free vinorelbine, vinorelbine] gave an AUC of 112 ng·h/mL.
